We go through 17 molecules from patent US20190327974A1, “SYNERGISTS FOR IMPROVED PESTICIDES” (priority 2017, published 2019).

Like-named read-outs stand apart in the source and are kept apart here.

The target in the experiment is T1, Gly137Asp LcαE7 (Lucilia cuprina, UniProt Q25252, G137D).
T1 sequence (Q25252 1-570 G137D): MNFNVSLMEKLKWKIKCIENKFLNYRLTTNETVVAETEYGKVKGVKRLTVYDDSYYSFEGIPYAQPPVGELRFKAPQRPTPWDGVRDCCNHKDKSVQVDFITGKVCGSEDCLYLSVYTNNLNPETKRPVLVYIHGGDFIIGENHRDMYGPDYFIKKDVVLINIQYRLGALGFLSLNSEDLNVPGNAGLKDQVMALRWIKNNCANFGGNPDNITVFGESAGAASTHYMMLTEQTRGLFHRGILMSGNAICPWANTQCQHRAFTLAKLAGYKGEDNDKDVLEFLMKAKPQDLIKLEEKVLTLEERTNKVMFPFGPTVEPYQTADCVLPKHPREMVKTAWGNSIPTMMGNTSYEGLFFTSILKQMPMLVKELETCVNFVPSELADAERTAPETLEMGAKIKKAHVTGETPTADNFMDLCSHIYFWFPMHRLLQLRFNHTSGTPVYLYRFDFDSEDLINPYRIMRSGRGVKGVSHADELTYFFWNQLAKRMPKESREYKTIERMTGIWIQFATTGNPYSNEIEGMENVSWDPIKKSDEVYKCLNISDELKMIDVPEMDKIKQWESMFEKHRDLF
Put plainly: Enzyme inhibition assay with 4-nitrophenol butyrate, Gly137Asp variant. Format: biochemical. As to the method: Inhibition of wild-type αE7 and the Gly137Asp αE7 variant was determined by a competition assay between the native-substrate analogue 4-nitrophenol butyrate (Sigma) and the boronic acid compounds. Initially, the Michalis constant (KM) with 4-nitrophenol butyrate was measured for both enzymes to determine an appropriate concentration of substrate for use in the competition assays. Formation of the 4-nitrophenolate product of hydrolysis was monitored at 405 nm in the presence of enzyme and eight different concentrations of substrate. 4-nitrophenol butyrate was prepared in methanol to 100 mM and serially diluted 1-in-2 to achieve concentrations from 100 mM to 0.8 mM. Enzyme stocks were prepared in 4 mg/ml bovine serum albumin (Sigma) to maintain enzyme stability. Reactions were prepared by pipetting 178 μl assay buffer (100 mM NaCl, 20 mM HEPES pH 7.5) and 2 μl substrate (final concentrations of 1000 to 8 μM) into 300 μl wells of a 96-well plate. The reaction was initiated by the addition of 20 μl enzyme (final concentration 2.5 nM for wildtype αE7 and 4 nM for Gly137Asp αE7). Product formation was monitored for four minutes at room temperature using an Epoch microplate spectrophotometer (BioTek) and the initial rates of ester hydrolysis were determined by linear regression using GraphPad Prism. The Michalis constant was determined by fitting the initial rates to the Michalis-Menton equation (FIG. 10).
Enzyme inhibition with the boronic acid compounds was determined by assaying the initial rate of 4-nitrophenol butyrate hydrolysis in the presence of either neat DMSO or the boronic acid compounds in DMSO. Compounds were prepared by serially diluting 1-in-3 an initial 10 mM stock to achieve concentrations from 10 mM to 2 nM. Reactions were prepared by pipetting 178 μl assay buffer supplemented with substrate to a final concentration equal to the KM of the enzyme (15 μM for wildtype αE7 and 250 μM for Gly137Asp αE7) into wells of a 96-well plate. 2 μl neat DMSO or 2 μl serially diluted inhibitor (final concentrations of 100 μM to 20 pM) were added to the wells. The reaction was initiated by the addition of 20 μl enzyme (final concentration 0.5 nM for wildtype αE7 and 10 nM for Glyl37Asp αE7). Product formation was monitored for four minutes at room temperature and the initial rates of ester hydrolysis were determined by linear regression. To determine the concentration of boronic acid compounds required to inhibit 50% of esterase activity (IC50), a four-parameter sigmoidal dose-response curve was fitted to percentage inhibition using GraphPad Prism (FIGS. 7 and 8). Ki values were determined using the Cheng-Prusoff equation assuming competitive inhibition (Yung-Chi, C. & Prusoff W. H. Relationship between the inhibition constant (KI) and the concentration of inhibitor which causes 50 percent inhibition (150) of an enzymatic reaction. Biochem. Pharmacol. 22, 3099-3108 (1973)).
The two most common CBE-mediated insecticide resistance mechanisms involve increased protein expression, or mutation to gain new catalytic (OP-hydrolase) functions. Compounds 1 to 5 were tested against the resistance associated Gly137Asp variant of LcαE7^17,27 (Table 1). The Glyl37Asp mutation is located in the oxyanion hole and positions a new general base in the active site to catalyze dephosphorylation of the catalytic serine. Thus, compounds that inhibit WT LcαE7 as well as this common resistance associated Glyl37Asp variant would increase the efficacy of OPs by targeting both detoxification routes. Encouraged by the activity of the boronic acids 1 to 5, the compounds were tested against the Gly137Asp variant of LcαE7 (Table 1).

Regarding `OB(O)c1ccc(OCc2ccccc2F)c(Cl)c1` [Compound 5, 3-Chloro-4(2′-fluorobenzyloxy) phenylboronic acid], the Ki (in general, a dissociation constant, usually derived from enzyme kinetics or from competition with a known ligand) was determined as 170 nM. Still for that read-out and setting: the figure for `OB(O)c1cc(Br)cc(N2CCCC2)c1` [Compound 3] is 110 nM; for `OB(O)c1ccccc1` [PBA, phenylboronic acid, reference compound] it is 450 nM; for `Cc1ccc(B(O)O)cc1Br` [Compound 1] it is 49 nM. As for `OB(O)c1cc(Br)cc(OCc2ccccc2)c1` [Compound 3.9], affinity was put at a Ki of 25 nM. In turn, `OB(O)c1cc(Br)cc2c1OCC2` [Compound 3.5] displayed a Ki of 440 nM. The molecule `CN1CCN(c2cc(Br)cc(B(O)O)c2)CC1` [Compound 3.4] returned a Ki of 1000 nM.

`OB(O)c1cc(Br)cc(N2CCCCC2)c1` [Compound 3.3] had a Ki of 150 nM. `Cc1ccc(B(O)O)cc1OCc1ccccc1` [Compound 2] showed a Ki of 29 nM. For `CC(C)(C)Oc1ccc(B(O)O)cc1Br` [Compound 3.12], the affinity, expressed as Ki, was 990 nM. `CC(C)Oc1cc(Br)cc(B(O)O)c1` [Compound 3.7, 3-Bromo-5-isopropoxyphenylboronic acid] came in with an inhibition constant Ki of 76 nM. Molecule `O=C(c1cc(Cl)cc(B(O)O)c1)N1CCOCC1` [Compound 3.11] registered a Ki of 1000 nM. Consider `OB(O)c1cc(Br)cc(N2CCOCC2)c1` [Compound 3.1], for which the Ki (Cheng-Prusoff from dose-response, 4-nitrophenol butyrate, read-out: Ki Gly137Asp LcαE7) came to 430 nM. In the case of `OB(O)c1cc(Br)cc(OC(F)(F)F)c1` [Compound 3.8], the inhibitory constant (Ki) is 110 nM. In turn, `OB(O)c1cc(Br)cc(Oc2ccccc2)c1` [Compound 3.10, 3-Bromo-5-phenoxyfenylboronic acid] had an inhibition constant Ki of 18 nM. For the molecule `OB(O)c1ccc2ccccc2c1` [Compound 4], the inhibitory constant (Ki) came out at 190 nM. `OB(O)c1cc(Br)c2ccccc2c1F` [Compound 3.6] returned an inhibition constant (Ki) of 71 nM.
